Assay results from US12643887B2, “Heterocyclic derivatives with cardiomyocyte proliferation activity for treatment of heart diseases” (Tongji University, priority 2019, dated 2026).

Tests used:
[1] = test system: Neonatal Rat Ventricular Myocytes (NRVMs); assay: Myocyte proliferation assay (EdU assay) in neonatal rat ventricular myocytes; format: cell-based; settings: growth relative to blank myocyte growth without compound added; for Avg 1 uM (average myocyte proliferation): compound 1 uM; for Avg 3 uM (average myocyte proliferation): compound 3 uM; for Avg 10 uM (average myocyte proliferation): compound 10 uM
Procedure: 1. Isolation of and Culture Neonatal Rat Ventricular Myocytes (NRVMs)
Ventricles from neonatal rats were separated from the atria, cut into small pieces (about 2×2 mm^2) and then dissociated in Ca2+-free HBSS containing 0.125 mg ml-1 trypsin (Gibco), 10 μg ml-1 DNase II (Sigma) and 0.1 mg ml-1 collagenase type IV (Sigma). The digestion was carried out under constant stirring at 37° C. for 5 min. The supernatant was collected with FBS (Gibco) after each digestion period. After digestion, the collected supernatant was centrifuged at 1000 g for 10 min at room temperature, and then cell pellets were resuspended in DMEM (Gibco) supplemented with 10% FBS and with 100 uM 5-bromo-2′-deoxyuridine (Sigma). The resuspended cells were passed through a cell strainer ([…], BD Falcon) and seeded onto 100-mm plastic dishes for 2 h at 37° C. in a 5% CO2 to remove fibroblasts, the supernatant was then collected and plated onto 1% gelatin (Sigma)-coated dishes. 24 h after the seeding, the medium was changed to DMEM (Gibco) containing 2% FBS (Gibco), 1% insulin-transferrin-selenium (ITS; Gibco), 1% Penicillin-Streptomycin (Gibco). After 24 hours of low serum culture, remove the medium with DMEM (Gibco) containing 6% FBS (Gibco), 1% insulin-transferrin-selenium (ITS; Gibco), 1% Penicillin-Streptomycin (Gibco), different concentrations of compounds (the compounds were pre-diluted in the medium and the drug concentration was 10 uM, 3 uM, 1 uM, fully mixed). After 36 h add Edu substrate (Invitrogen) according to the manufacturer's guidelines, and then after 12 h cell can be used.
• 2.1. Immobilization: Remove the medium and fix the cells with […] in 200 ul (whichever is covered) for 15 min and wash the cells twice with 500 ul of PBS for 5 min each time. • 2.2. Broken membrane: Add 200 ul of 0.3% Triton-X 100 (diluted in PBS) to each well, incubate for 10-15 min at room temperature (the time should not be too long), and wash the cells twice with 500 ul of PBS for 5 min each time. • 2.3. Blocking: Add 200 ul of 10% normal goat serum (diluted with 0.1% PBST) to each well, incubate for 1 h at room temperature, and wash twice with 500 ul of 0.1% PBST for 5 min each time. • 2.4. Primary antibody: dilute the primary antibody (abcam, ab8295) to blocking solution at a ratio of 1:200, add 100 ul per well, incubate for 1 h at room temperature (may be slightly longer than 2-3 h), wash the cells twice with 500 ul 0.1% PBST for 5 min each time. • 2.5. Secondary antibody: Dilute the fluorescently labeled secondary antibody (abcam, ab150117) into blocking solution at a ratio of 1:200, add 100 ul per well, incubate for 1 h at room temperature (the time should not be too long), wash the cells twice with 0.1% PBST for 5 min each time, pay attention to the whole process. Protected from light. • 2.6. Edu staining (Invitrogen C10338) • 2.6.1 Prepare Click-iT® reaction cocktail according to Table 3. It was important to add the ingredients in the order listed in the table; otherwise, the reaction would not proceed optimally. Use the Click-iT® reaction cocktail within 15 minutes of preparation.
• 2.6.2 Add 0.1 mL of Click-iT® reaction cocktail to each well containing a coverslip. Rock the plate briefly to ensure that the reaction cocktail is distributed evenly over the coverslip. • 2.6.3 Incubate the plate for 30 minutes at room temperature, protected from light. • 2.6.4 Remove the reaction cocktail, then wash the cells twice with 0.1% PBST for 5 min each time. • 2.7. DAPI staining: DAPI stain was diluted to PBS at a ratio of 1:1000, 100 ul per well, incubated for 30 min at room temperature, and the cells were washed twice with PBS for 5 min each. 3. Data Analysis
We used Molecular Devices' Image Xpress Micro Confocal for high-throughput photo and data analysis.

human HIPK1 = target: T1, human HIPK1 (Homo sapiens, UniProt Q86Z02); assay: HIPK1 enzyme assay (ADP-Glo); format: biochemical; settings: ADP-Glo, ATP 5 μM; read-out: HIPK1 IC50
T1 construct: Recombinant human HIPK1 (156-555); GST (N); purchased SignalChem H03-11G; host or cells: Sf9 insect cells
Procedure: The ability of compounds to inhibit human HIPK1 kinase activities was determined using a commercially available ADP-Glo™ Kinase Assay kit (Promega, Cat #V9102) according to the manufacturer's protocol.
Recombinant human HIPK1 (156-555) (expressed in Sf9 insect cells with an N-terminal GST tag) was purchased from SignalChem (Cat #H03-11G). Recombinant full length human MBP (expressed in E. Coli cells with an N-terminal GST tag) was purchased from SignalChem (Cat #M42-54G). This assay, run in a 384-well plate format, is a generic method for measuring kinase activities using an ADP-Glo Kinase Assay Kit. The basic assay procedure involves two steps: (1) Enzymatic step: inhibitors are incubated with the kinase and then ATP (included in the ADP-Glo Kinase Assay Kit) and the MBP protein are added to start the enzymatic reaction; (2) Detection step: after the kinase reaction, first ADP-Glo™ Reagent is added to terminate the kinase reaction and deplete the remaining ATP. Second, the Kinase Detection Reagent is added to simultaneously convert ADP to ATP and allow the newly synthesized ATP to be measured using a luciferase/luciferin reaction. The light generated is measured using a luminometer.
Briefly, HIPK1 (4 nM) in the enzymatic buffer solutions (40 mM Tris, pH 7.5, 20 mM MgCl2, 0.1 mg/ml BSA, 50 μM DTT) were mixed with various concentrations of inhibitors (dissolved in 100% DMSO). These solutions were incubated for 30 minutes at 25° C., and subsequently a mixture of substrate peptide and ATP was added with the final peptide and ATP concentrations at 0.05 mg/ml and 5 μM, respectively. The final reaction mixture of enzyme-substrate-ATP-compound was incubated for 90 minutes at 25° C.
Afterwards ADP-Glo™ Reagent was added and the mixture was incubated at 25° C. for 60 minutes. Then Kinase Detection Reagent was added, and the final mixture was incubated at 25° C. for 60 minutes. The luminescence signal of the final solution was measured on an Envision instrument (PerkinElmer). The percent (%) inhibition at each concentration of a compound is calculated relative to the luminescence signal in the Max and Min control wells contained within each assay plate. […] The concentrations and percent inhibition values for a test compound are plotted and the concentration of the compound required to achieve 50% inhibition (IC50) is determined with a four-parameter logistic dose response equation.

T1 sequence (Q86Z02 156-555): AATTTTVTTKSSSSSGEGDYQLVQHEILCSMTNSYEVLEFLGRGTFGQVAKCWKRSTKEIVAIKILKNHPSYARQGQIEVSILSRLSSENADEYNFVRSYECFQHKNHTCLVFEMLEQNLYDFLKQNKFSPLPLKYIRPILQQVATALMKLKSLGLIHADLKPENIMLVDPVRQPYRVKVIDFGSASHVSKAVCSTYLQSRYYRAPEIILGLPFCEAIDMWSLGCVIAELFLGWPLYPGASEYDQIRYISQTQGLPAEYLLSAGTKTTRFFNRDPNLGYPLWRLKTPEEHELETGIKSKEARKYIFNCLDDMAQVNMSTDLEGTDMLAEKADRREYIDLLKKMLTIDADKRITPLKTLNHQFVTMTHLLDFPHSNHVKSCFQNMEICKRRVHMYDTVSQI

SMILES | Avg 1 uM (average myocyte proliferation) [1] | Avg 3 uM (average myocyte proliferation) [1] | Avg 10 uM (average myocyte proliferation) [1] | IC50 (human HIPK1)
CN(Cc1ccccc1)C1=N/C(=C\c2ccc3ncsc3c2)C(=O)N1 [Example 28, (Z)-5-(benzo[d]thiazol-6-ylmethylene)-2-(benzyl(methyl)amino)-3,5-dihydro-4H-imidazol-4-one] | * (<10% growth relative to blank myocyte growth without compound added.) | * (<10% growth relative to blank myocyte growth without compound added.) | * (<10% growth relative to blank myocyte growth without compound added.) | 1 to 10 µM
O=C1NC(Nc2ccc3ncsc3c2)=N/C1=C\c1ccc2c(c1)OCO2 [Example 47, (Z)-5-(benzo[d][1,3]dioxol-5-ylmethylene)-2-(benzo[d]thiazol-6-ylamino)-3,5-dihydro-4H-imidazol-4-one] | *** (>50%) | *** (>50%) | *** (>50%) | > 10 µM
O=C1NC(Nc2ccccc2)=N/C1=C\c1ccc2nn[nH]c2c1 [Example 56, (Z)-5-((1H-benzo[d][1,2,3]triazol-6-yl)methylene)-2-(phenylamino)-3,5-dihydro-4H-imidazol-4-one] | * (<10% growth relative to blank myocyte growth without compound added.) | * (<10% growth relative to blank myocyte growth without compound added.) | – | > 10 µM
CN(C1=N/C(=C\c2ccc3c(c2)OCO3)C(=O)N1)c1ccc(N)cc1 [Example 37, (Z)-2-((4-aminophenyl)(methyl)amino)-5-(benzo[d][1,3]dioxol-5-ylmethylene)-3,5-dihydro-4H-imidazol-4-one] | *** (>50%) | ** (10%-50%) | ** (10%-50%) | > 10 µM
Cn1ncc2ccc(/C=C3\N=C(Nc4ccccc4)NC3=O)cc21 [Example 79, 5-((1-methyl-1H-indazol-6-yl)methylene)-2-(phenylamino)-3,5-dihydro-4H-imidazol-4-one] | * (<10% growth relative to blank myocyte growth without compound added.) | * (<10% growth relative to blank myocyte growth without compound added.) | – | > 10 µM
O=C1NC(NC23CC4CC(CC(C4)C2)C3)=N/C1=C\c1ccc2scnc2c1 [Example 50, (Z)-2-(adamantan-1-ylamino)-5-(benzo[d]thiazol-5-ylmethylene)-3,5-dihydro-4H-imidazol-4-one] | * (<10% growth relative to blank myocyte growth without compound added.) | * (<10% growth relative to blank myocyte growth without compound added.) | – | > 10 µM
O=C1NC(Nc2ccccc2)=N/C1=C\c1ccc2ncccc2c1 [Example 53, (Z)-2-(phenylamino)-5-(quinolin-6-ylmethylene)-3,5-dihydro-4H-imidazol-4-one] | ** (10%-50%) | *** (>50%) | ** (10%-50%) | > 10 µM
O=C1/C(=C/c2ccc3ncsc3c2)N=C(N(Cc2ccccc2)c2ccccc2)N1Cc1ccccc1 [Example 42, (Z)-5-(benzo[d]thiazol-6-ylmethylene)-3-benzyl-2-(benzyl(phenyl)amino)-3,5-dihydro-4H-imidazol-4-one] | ** (10%-50%) | ** (10%-50%) | *** (>50%) | > 10 µM
O=C(O)CCN(C1=N/C(=C\c2ccc3c(c2)OCO3)C(=O)N1)c1ccccc1 [Example 27, (Z)-3-((4-(benzo[d][1,3]dioxol-5-ylmethylene)-5-oxo-4,5-dihydro-1H-imidazol-2-yl)(phenyl)amino)propanoic acid] | * (<10% growth relative to blank myocyte growth without compound added.) | * (<10% growth relative to blank myocyte growth without compound added.) | ** (10%-50%) | 1 to 10 µM
CN(C1=N/C(=C\c2ccc3ncsc3c2)C(=O)N1)c1ccc(N)cc1 [Example 44, (Z)-2-((4-aminophenyl)(methyl)amino)-5-(benzo[d]thiazol-6-ylmethylene)-3,5-dihydro-4H-imidazol-4-one] | *** (>50%) | ** (10%-50%) | ** (10%-50%) | 1 to 10 µM
CN(Cc1ccccc1)C1=N/C(=C\c2ccc3c(c2)OCO3)C(=O)N1 [Example 23, (Z)-5-(benzo[d][1,3]dioxol-5-ylmethylene)-2-(benzyl(methyl)amino)-3,5-dihydro-4H-imidazol-4-one] | ** (10%-50%) | ** (10%-50%) | ** (10%-50%) | > 10 µM
CN(C1=N/C(=C\c2ccc3ncsc3c2)C(=O)N1)c1ccc(Cl)cc1 [Example 24, (Z)-5-(benzo[d]thiazol-6-ylmethylene)-2-((4-chlorophenyl)(methyl)amino)-3,5-dihydro-4H-imidazol-4-one] | * (<10% growth relative to blank myocyte growth without compound added.) | * (<10% growth relative to blank myocyte growth without compound added.) | * (<10% growth relative to blank myocyte growth without compound added.) | > 10 µM
NC1=N/C(=C\c2ccc3ncsc3c2)C(=O)N1 [Example 103, (Z)-2-amino-5-(benzo[d]thiazol-6-ylmethylene)-3,5-dihydro-4H-imidazol-4-one] | ** (10%-50%) | ** (10%-50%) | – | 0.1 to 1 µM
